US6770652B2, “Multiple acting anti-angiogenic and cytotoxic compounds and methods for using the same” (Duquesne University of the Holy Ghost, priority 2001, dated 2004)
Read-outs that look alike come from different tables or passages of the source.

Assays:
[1] = test system: chorioallantoic membrane (CAM) of 10-day old chicken embryos; test: CAM assay (growth factor-induced angiogenesis on chorioallantoic membrane); assay type: in vivo; conditions: for IC50: Gallus gallus, read-out: CAM angiogenesis Inhibition, apparent IC50
Method: Human VEGF-165 and BFGF (200 ng each) were added to saturation to a microbial testing disk and placed onto the chorioallantoic membrane (CAM) of 10-day old chicken embryos. Eight hours after the growth factor treatment, unknown compounds (100 μg) were added to the same microbial testing disk. Growth factors and embryos were allowed to incubate an additional 40 hours. CAMS were removed, paraformaldehyde (4% in PBS) fixed, placed onto Petri dishes, and digital images taken at 7.5× using a dissecting microscope. A 1×1-cm grid was then added to the digital CAM images and the number of vessels within each grid counted as a measure of vascularity. […] Data were then graphed (FIG. 1) as a percent of growth factor-induced blood vessel amounts.

[2] = target: Flk-1 (Homo sapiens, UniProt P35968); test: Phospho-Flk1 phosphotyrosine ELISA (cytoblot) on whole U251 glioblastoma cells; Flk1 kinase inhibition; assay type: cell-based
Method: Reactions were stopped by the aspiration of media and the addition of phosphate buffered saline (PBS) containing 0.05% triton X-100, protease inhibitor cocktail and phosphatase inhibitor cocktail 2 (Sigma Chemical company) for 10 minutes on ice. Cells were then fixed at 60° C. for 30 minutes and then cold methanol added to the cells for five minutes to further permeabilize them for antibody penetration. Cells were blocked for one hour with 1% bovine serum albumin in PBS, washed twice in PBS, and then anti-phosphotyrosine-HRP conjugate (Oncogene Research) added at 1:250 dilution overnight. The antibody was then removed, the cells washed three times in PBS with 1% BSA and once with PBS, and luminol-peroxide reagent added (Pierce Biochemical) for 5 minutes. […] Data are graphed as a percentage of growth factor (EGF, VEGF) treated controls.

[3] = U251 cytotoxicity; assay type: cell-based; conditions: human, U251 cells; Table 4; read-out: U251 cytotoxicity Inhibition, apparent IC50
[4] = target: Flt-1 (Homo sapiens, UniProt P17948); test: Flt-1 kinase inhibition; assay type: cell-based; conditions: Table 4; read-out: Flt-1 kinase Inhibition, apparent IC50
[5] = Table 2, read-out: FIK1 Kinase Inhibition IC50
[6] = Table 4, U251 cells overexpress Flk1, read-out: Flk-1 kinase Inhibition, apparent IC50

Sequence of Flk-1 (P35968 20-1356): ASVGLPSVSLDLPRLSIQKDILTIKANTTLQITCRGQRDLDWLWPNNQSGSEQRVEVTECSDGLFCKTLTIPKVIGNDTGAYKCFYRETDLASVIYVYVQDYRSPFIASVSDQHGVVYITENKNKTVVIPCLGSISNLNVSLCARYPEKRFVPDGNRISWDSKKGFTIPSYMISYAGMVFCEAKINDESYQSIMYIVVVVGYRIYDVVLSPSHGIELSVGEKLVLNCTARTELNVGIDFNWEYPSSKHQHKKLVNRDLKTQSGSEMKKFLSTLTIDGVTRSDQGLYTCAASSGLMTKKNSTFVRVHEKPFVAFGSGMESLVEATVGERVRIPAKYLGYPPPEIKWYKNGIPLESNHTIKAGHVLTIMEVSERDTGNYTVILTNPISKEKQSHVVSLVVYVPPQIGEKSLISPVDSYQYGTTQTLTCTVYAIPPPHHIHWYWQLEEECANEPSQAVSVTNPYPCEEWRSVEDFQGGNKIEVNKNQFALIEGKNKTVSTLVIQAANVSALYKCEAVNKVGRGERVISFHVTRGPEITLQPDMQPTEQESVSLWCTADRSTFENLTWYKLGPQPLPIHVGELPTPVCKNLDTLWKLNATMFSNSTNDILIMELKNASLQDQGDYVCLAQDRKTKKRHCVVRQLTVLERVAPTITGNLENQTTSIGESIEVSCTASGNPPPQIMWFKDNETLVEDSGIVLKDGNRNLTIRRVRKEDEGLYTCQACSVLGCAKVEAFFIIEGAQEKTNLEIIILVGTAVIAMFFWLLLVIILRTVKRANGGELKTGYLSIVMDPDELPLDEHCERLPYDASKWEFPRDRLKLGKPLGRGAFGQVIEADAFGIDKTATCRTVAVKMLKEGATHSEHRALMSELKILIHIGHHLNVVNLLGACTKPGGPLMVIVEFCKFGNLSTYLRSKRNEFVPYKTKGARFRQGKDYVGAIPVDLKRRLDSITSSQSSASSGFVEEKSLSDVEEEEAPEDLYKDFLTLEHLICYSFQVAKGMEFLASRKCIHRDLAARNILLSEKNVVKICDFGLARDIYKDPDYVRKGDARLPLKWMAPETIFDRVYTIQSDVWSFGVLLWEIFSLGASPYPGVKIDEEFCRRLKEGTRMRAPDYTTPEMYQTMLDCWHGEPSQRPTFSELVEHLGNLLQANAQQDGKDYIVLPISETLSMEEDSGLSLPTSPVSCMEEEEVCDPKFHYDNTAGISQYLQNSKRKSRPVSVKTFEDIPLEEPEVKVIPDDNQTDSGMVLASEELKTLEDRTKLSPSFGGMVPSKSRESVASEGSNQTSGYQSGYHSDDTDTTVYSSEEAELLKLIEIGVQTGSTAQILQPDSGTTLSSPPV
Sequence of Flt-1 (P17948 27-1338, species assumed): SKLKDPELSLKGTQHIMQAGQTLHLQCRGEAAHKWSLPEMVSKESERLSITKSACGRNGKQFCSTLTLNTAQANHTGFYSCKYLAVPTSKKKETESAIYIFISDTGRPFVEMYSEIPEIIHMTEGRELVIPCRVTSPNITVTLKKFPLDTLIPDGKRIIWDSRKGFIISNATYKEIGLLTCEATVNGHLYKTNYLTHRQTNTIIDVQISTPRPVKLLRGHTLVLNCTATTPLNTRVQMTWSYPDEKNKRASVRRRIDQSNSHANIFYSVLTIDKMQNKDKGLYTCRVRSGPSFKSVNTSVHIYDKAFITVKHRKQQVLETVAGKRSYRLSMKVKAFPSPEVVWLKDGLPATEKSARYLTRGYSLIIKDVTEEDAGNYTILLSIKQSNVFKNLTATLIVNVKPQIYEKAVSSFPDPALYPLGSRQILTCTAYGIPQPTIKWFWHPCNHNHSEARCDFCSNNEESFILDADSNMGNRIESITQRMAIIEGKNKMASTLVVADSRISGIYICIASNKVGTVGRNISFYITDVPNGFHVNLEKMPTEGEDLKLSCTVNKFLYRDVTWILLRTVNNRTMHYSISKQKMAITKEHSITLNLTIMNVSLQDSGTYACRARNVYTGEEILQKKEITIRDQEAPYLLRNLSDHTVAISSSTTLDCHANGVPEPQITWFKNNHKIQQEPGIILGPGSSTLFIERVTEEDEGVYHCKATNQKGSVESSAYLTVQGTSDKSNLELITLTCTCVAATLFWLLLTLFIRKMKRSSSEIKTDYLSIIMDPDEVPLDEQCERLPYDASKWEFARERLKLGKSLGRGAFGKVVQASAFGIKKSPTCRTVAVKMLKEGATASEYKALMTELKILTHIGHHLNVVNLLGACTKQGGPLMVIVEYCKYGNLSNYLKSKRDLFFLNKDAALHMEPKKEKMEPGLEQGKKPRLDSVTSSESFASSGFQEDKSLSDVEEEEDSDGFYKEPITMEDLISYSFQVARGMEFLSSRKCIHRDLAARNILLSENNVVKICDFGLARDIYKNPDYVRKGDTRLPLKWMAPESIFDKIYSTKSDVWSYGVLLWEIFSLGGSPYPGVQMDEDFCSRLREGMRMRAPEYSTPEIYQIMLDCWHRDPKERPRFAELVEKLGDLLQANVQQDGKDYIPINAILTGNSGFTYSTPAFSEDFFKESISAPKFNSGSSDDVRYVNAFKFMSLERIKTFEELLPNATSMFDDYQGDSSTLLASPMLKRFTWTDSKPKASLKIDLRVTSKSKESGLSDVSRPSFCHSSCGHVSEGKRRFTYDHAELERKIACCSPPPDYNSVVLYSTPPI

Row | Compound | IC50 [1] | further results
1 | Nc1nc(Nc2cccc(Br)c2)c2cc(Cc3ccc(Cl)cc3Cl)[nH]c2n1 [YJ/AG 176] | 10800 nM | –
2 | Nc1nc(Nc2cccc(Br)c2)c2cc(Cc3ccc4ccccc4c3)[nH]c2n1 [YJ/AG 146] | 8900 nM | IC50 [2, 5]: > 50000 nM; IC50 [2, 6]: > 50000 nM
3 | COc1ccc(OC)c(Cc2cc3c(Nc4cccc(Br)c4)nc(N)nc3[nH]2)c1 [YJ/AG 178] | 1300 nM | IC50 [2, 5]: 600 nM; IC50 [2, 6]: 600 nM
4 | Cc1cc(C)c(/C=C2\C(=O)Nc3ccccc32)[nH]1 [SU5416, reference compound] | < 100 nM | IC50 [3]: 200 nM
5 | Nc1nc(Nc2cccc(Br)c2)c2cc(Cc3ccc(-c4ccccc4)cc3)[nH]c2n1 [YJ/AG 154] | < 100 nM | –
6 | Nc1nc(Nc2cccc(Br)c2)c2cc(Cc3ccc(Cl)c(Cl)c3)[nH]c2n1 [YJ/AG 148] | < 100 nM | Toxicity remark in CAM angiogenesis column ([1]; Table 4, remark under the CAM value): (toxic)
7 | COc1cc(Cc2cc3c(Nc4cccc(Br)c4)nc(N)nc3[nH]2)cc(OC)c1OC [YJ/AG 177] | 400 nM | –
8 | Nc1nc(Nc2cccc(Br)c2)c2cc(Cc3ccccc3Cl)[nH]c2n1 [YJ/AG 145] | 1700 nM | –
9 | Nc1nc(Nc2cccc(Br)c2)c2cc(Cc3ccccc3)[nH]c2n1 [YJ/AG 156] | < 100 nM | IC50 [3]: 3400 nM
10 | Cc1ccccc1Cc1cc2c(Nc3cccc(Br)c3)nc(N)nc2[nH]1 [YJ/AG 168] | 1200 nM | IC50 [3]: 5000 nM; IC50 [2, 5]: 300 nM; IC50 [4]: > 50000 nM
11 | Nc1nc(Nc2cccc(Br)c2)c2cc(Cc3cccc4ccccc34)[nH]c2n1 [YJ/AG 158] | < 100 nM | –
